“And” between values parts separate entries of the source, which are not always exact repeats. Identical values can stand only once.
Tests used:
[1] = Azithromycin serum pharmacokinetics in mice; assay type: in vivo, mouse; conditions: for Cmax / Tmax / AUC(0-t): female, CF-1, mouse, Serum PK, total dose 100 mg/kg oral; for AUC(0-t): read-out: AUC(0-tlast)
Method: Blood and pulmonary tissue samples were taken starting at 0.5 h post-dose and at predetermined intervals over a 96 h period. […] […] The lower limit of quantification (LLOQ) was 50 ng/ml. […] Interassay variability was <7%. Pharmacokinetic parameters were calculated using the non-compartmental method by WinNonlin 2.1 (Scientific Consulting, Inc.).

[2] = test system: Haemophilus influenzae 54A1100; assay: Gerbil middle ear infection in vivo time kill, H. influenzae 54A1100
[3] = test system: M. catarrhalis; assay: Susceptibility testing of trial M. catarrhalis isolates; assay type: cell-based, Moraxella catarrhalis; conditions: NCCLS criteria
From the text: Samples of middle ear fluid were split for storage at a central laboratory and cultured locally. All pathogens isolated locally were subcultured and sent to a central laboratory for confirmation and susceptibility testing, performed by Kirby-Bauer disk-diffusion or MIC testing according to NCCLS standards.
Cultures were taken for antimicrobial susceptibility testing and bacterial species were identified. Current NCCLS approved breakpoints for MICs and zone sizes were applied to all data irrespective of the breakpoint in use at the time of the study. The isolates from the clinical studies were sent to central laboratories for identification and susceptibility determination. The methods for agar diffusion disk tests are those recommended by NCCLS.
The susceptibility breakpoints for azithromycin were defined as follows: […]

[4] = test system: pneumococcal challenge; conditions: single dose compared with all the other dose regimens; cited from earlier work
[5] = test system: Chlamydia trachomatis; conditions: azithromycin (± an anti-inflammatory agent); cited from earlier work
[6] = test system: M catarrhalis; assay: Study 95-001 otitis media, M. catarrhalis; assay type: in vivo, human; conditions: 3-day dosing regimen
Method: Specimens for culture and susceptibility testing were obtained from the infected ear by tympanocentesis within 24 h of start of therapy. […] However, the study was evaluated using the breakpoints in the most recent set of guidelines.
To be a bacteriological cure, the MITT subject had to have a positive culture from the middle ear for S. pneumoniae, H influenzae, or M. catarrhalis. Eradication was defined as presumed eradication of pretreatment pathogen(s) based on signs/symptoms or unavailability of culturable material. All evaluable patients had only one of the bacterial species present at baseline. There was no bacteriological response data collected for 95–001. However, the clinical outcome by bacterial pathogen at follow-up (approximately 28 days after first visit) was collected. For patients with S. pneumoniae as the baseline pathogen, all treatment arms yielded 100% clinical cure when the investigators' evaluations that were missing are not included in the analysis. […] The comparator drug, ceftriaxone, had no failures out of 9 patients.

[7] = Azithromycin pulmonary tissue pharmacokinetics in mice; assay type: in vivo; conditions: female, CF-1, mouse, lung (pulmonary tissue), Pulmonary PK, total dose 100 mg/kg oral; for AUC(0-t): read-out: AUC(0-tlast)
Method: Blood and pulmonary tissue samples were taken starting at 0.5 h post-dose and at predetermined intervals over a 96 h period. Plasma and lung samples were prepared and maintained at −70 C. […] The lower limit of quantification (LLOQ) was 50 ng/ml. […] Interassay variability was <7%. Pharmacokinetic parameters were calculated using the non-compartmental method by WinNonlin 2.1 (Scientific Consulting, Inc.).

[8] = 33 mg/kg, 3 days of dosing, 33.3 mg/kg/dose
[9] = 1 day of dosing, 100 mg/kg/dose
[10] = 2 days of dosing, 50 mg/kg/dose

With CC[C@H]1OC(=O)[C@H](C)[C@@H](O[C@H]2C[C@@](C)(OC)[C@@H](O)[C@H](C)O2)[C@H](C)[C@@H](O[C@@H]2O[C@H](C)C[C@H](N(C)C)[C@H]2O)[C@](C)(O)C[C@@H](C)CN(C)[C@H](C)[C@@H](O)[C@]1(C)O [Azithromycin, 9a-aza-9a-methyl-9-deoxo-9a-homoerythromycin A] the “Cmax, single dose vs. the same total dose administered over 3 days” value ([1]; better when administered as a single dose) was 3 fold, the Cmax [1, 8] was 980 ng/mL and the Tmax [1, 8] was 26 h. The AUC(0-t) [1, 8] was 19.8 µg·h/mL, the Cmax [1, 9] was 2100 ng/mL and the Tmax [1, 9] was 2 h. For the same molecule, the AUC(0-t) [1, 9] was 18.8 µg·h/mL, the Cmax [1, 10] was 1300 ng/mL and the Tmax [1, 10] was 26 h. The AUC(0-t) [1, 10] was 15.9 µg·h/mL, the “Recoverable CFU (Bulla) [Log10.Geo.Mean] (SEM)” value ([2]; 66.6 mg/kg/day oral Q.D. [3 days], 48 hours post-infection) was 5.8817 (0.44) log of cfu-bulla wash/ml and 5.8817 log of cfu-bulla wash/ml and the “Recoverable CFU (Bulla) [Log10.Geo.Mean] (SEM)” value ([2]; 66.6 mg/kg/day oral Q.D. [3 days], 72 hours post-infection) was 4.5981 (0.14) log of cfu-bulla wash/ml and 4.5981 log of cfu-bulla wash/ml. For the same molecule, the “Recoverable CFU (Bulla) [Log10.Geo.Mean] (SEM)” value ([2]; 66.6 mg/kg/day oral Q.D. [3 days], 96 hours post-infection) was 6.1520 (0.75) log of cfu-bulla wash/ml and 6.1520 log of cfu-bulla wash/ml, the “Recoverable CFU (Bulla) [Log10.Geo.Mean] (SEM)” value ([2]; 100 mg/kg/day oral Q.D. [2 days], 48 hours post-infection) was 5.7572 (0.54) log of cfu-bulla wash/ml and 5.7572 log of cfu-bulla wash/ml and the “Recoverable CFU (Bulla) [Log10.Geo.Mean] (SEM)” value ([2]; 100 mg/kg/day oral Q.D. [2 days], 72 hours post-infection) was <2.4580 (0.46) log of cfu-bulla wash/ml and <2.4580 log of cfu-bulla wash/ml. The “Recoverable CFU (Bulla) [Log10.Geo.Mean] (SEM)” value ([2]; 100 mg/kg/day oral Q.D. [2 days], 96 hours post-infection) was <3.1112 (1.11) log of cfu-bulla wash/ml and <3.1112 log of cfu-bulla wash/ml, the “Recoverable CFU (Bulla) [Log10.Geo.Mean] (SEM)” value ([2]; 200 mg/kg/day oral Q.D. [1 day], 48 hours post-infection) was <2.0000 log of cfu-bulla wash/ml and the “Recoverable CFU (Bulla) [Log10.Geo.Mean] (SEM)” value ([2]; 200 mg/kg/day oral Q.D. [1 day], 72 hours post-infection) was <2.0000 log of cfu-bulla wash/ml. For the same molecule, the “Recoverable CFU (Bulla) [Log10.Geo.Mean] (SEM)” value ([2]; 200 mg/kg/day oral Q.D. [1 day], 96 hours post-infection) was <2.0000 log of cfu-bulla wash/ml, the “eradication, test subjects” value ([2]; Q.D. 2 (100 mg/kg on day 1 and 2), at 72 and at 96 hours post-infection) was 4/5 and the “eradication in any test subject” value ([2]; Q.D. 3 (66.6 mg/kg on day 1, 2 and 3), 72 and 96 hours post-infection) was “not observed”. For the same molecule, the “susceptibility of isolated M. catarrhalis to azithromycin” value [3] was “susceptible”, the “survival versus a pneumococcal challenge” value [4] was “significantly increased survival” and the preserving fertility [5] was “superior to doxycycline and ofloxacin combinations”. For the same molecule, the “outcome at follow-up of the two M catarrhalis isolates” value [6] was “presumed bacteriological cures”, the Cmax [7, 8] was 28000 ng/mL and the Tmax [7, 8] was 12 h. The AUC(0-t) [7, 8] was 1050 µg·h/mL, the Cmax [7, 9] was 40000 ng/mL and the Tmax [7, 9] was 4 h. The AUC(0-t) [7, 9] was 970 µg·h/mL, the Cmax [7, 10] was 31000 ng/mL and the Tmax [7, 10] was 28 h. For the same molecule, the AUC(0-t) [7, 10] was 870 µg·h/mL.

Source: patent US6987093B2 (priority 2001, dated 2006)
